{"source": "ChEMBL document CHEMBL1201862", "about": "“PubChem BioAssay data set” (2004)", "test_in_all_cases": "NCI tumour cell line growth inhibition, 48 h", "key": {"DLD-1": {"system": "DLD-1"}, "MOLT-4": {"system": "MOLT-4"}, "CCRF-CEM": {"system": "CCRF-CEM"}, "RPMI-8226": {"system": "RPMI-8226"}, "SK-MEL-2": {"system": "SK-MEL-2"}, "M14": {"system": "M14"}, "OVCAR-5": {"system": "OVCAR-5"}, "NCI-H522": {"system": "NCI-H522"}, "U-251": {"system": "U-251"}, "DMS-114": {"system": "DMS-114"}, "OVCAR-4": {"system": "OVCAR-4"}, "KM12": {"system": "KM12"}, "HCC 2998": {"system": "HCC 2998"}, "HCT-116": {"system": "HCT-116"}, "A549": {"system": "A549"}, "LOX IMVI": {"system": "LOX IMVI"}, "Malme-3M": {"system": "Malme-3M"}, "ACHN": {"system": "ACHN"}, "XF498": {"system": "XF498"}, "UACC-62": {"system": "UACC-62"}, "SK-MEL-5": {"system": "SK-MEL-5"}, "NCI-H23": {"system": "NCI-H23"}, "DMS-273": {"system": "DMS-273"}, "SNB-78": {"system": "SNB-78"}, "A498": {"system": "A498"}, "OVCAR-3": {"system": "OVCAR-3"}, "K562": {"system": "K562"}, "SNB-75": {"system": "SNB-75"}, "OVCAR-8": {"system": "OVCAR-8"}, "SF-268": {"system": "SF-268"}, "SN12C": {"system": "SN12C"}, "786-0": {"system": "786-0"}, "UO-31": {"system": "UO-31"}, "SK-MEL-28": {"system": "SK-MEL-28"}, "HOP-62": {"system": "HOP-62"}, "LXFL 529": {"system": "LXFL 529"}, "TK-10": {"system": "TK-10"}, "SNB-19": {"system": "SNB-19"}, "NCI-H460": {"system": "NCI-H460"}, "HCT-15": {"system": "HCT-15"}, "COLO 205": {"system": "COLO 205"}, "EKVX": {"system": "EKVX"}, "SF-295": {"system": "SF-295"}, "HL-60": {"system": "HL-60"}, "M19-MEL": {"system": "M19-MEL"}, "UACC-257": {"system": "UACC-257"}, "IGROV-1": {"system": "IGROV-1"}, "HT-29": {"system": "HT-29"}, "KM-20L2": {"system": "KM-20L2"}, "SK-OV-3": {"system": "SK-OV-3"}, "SR": {"system": "SR"}, "SW-620": {"system": "SW-620"}}, "note": "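All cell lines were grown in 96-well plates and treated with compound for 48 hours. GI50 = concentration required for 50% inhibition of growth.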 Calls of active or inactive are those of the source. Cut-off read from the data, not from the text of the source: active = GI50 up to about 1.1 µM and inactive = higher.", "data": [{"smiles": "NC(CSSCC(N)Cc1ccccc1)Cc1ccccc1", "note": "(configuration not stated)", "values": [{"measurement": "GI50", "setting": "DLD-1", "value": "49.5 µM (inactive)"}, {"measurement": "GI50", "setting": "MOLT-4", "value": "30.1 µM (inactive)"}, {"measurement": "GI50", "setting": "CCRF-CEM", "value": "32.9 µM (inactive)"}, {"measurement": "GI50", "setting": "RPMI-8226", "value": "35.3 µM (inactive)"}, {"measurement": "GI50", "setting": "SK-MEL-2", "value": "36.8 µM (inactive)"}, {"measurement": "GI50", "setting": "M14", "value": "26.4 µM (inactive)"}, {"measurement": "GI50", "setting": "OVCAR-5", "value": "44.3 µM (inactive)"}, {"measurement": "GI50", "setting": "NCI-H522", "value": "15.7 µM (inactive)"}, {"measurement": "GI50", "setting": "U-251", "value": "84.1 µM (inactive)"}, {"measurement": "GI50", "setting": "DMS-114", "value": "39.2 µM (inactive)"}, {"measurement": "GI50", "setting": "OVCAR-4", "value": "70.8 µM (inactive)"}, {"measurement": "GI50", "setting": "KM12", "value": "30.2 µM (inactive)"}, {"measurement": "GI50", "setting": "HCC 2998", "value": "> 100 µM (inactive)"}, {"measurement": "GI50", "setting": "HCT-116", "value": "35.2 µM (inactive)"}, {"measurement": "GI50", "setting": "A549", "value": "65.8 µM (inactive)"}, {"measurement": "GI50", "setting": "LOX IMVI", "value": "29.7 µM (inactive)"}, {"measurement": "GI50", "setting": "Malme-3M", "value": "57.3 µM (inactive)"}, {"measurement": "GI50", "setting": "ACHN", "value": "76.4 µM (inactive)"}, {"measurement": "GI50", "setting": "XF498", "value": "27.1 µM (inactive)"}, {"measurement": "GI50", "setting": "UACC-62", "value": "23.1 µM (inactive)"}, {"measurement": "GI50", "setting": "SK-MEL-5", "value": "24 µM (inactive)"}, {"measurement": "GI50", "setting": "NCI-H23", "value": "44.4 µM (inactive)"}, {"measurement": "GI50", "setting": "DMS-273", "value": "> 10 µM (inactive)"}, {"measurement": "GI50", "setting": "SNB-78", "value": "> 100 µM (inactive)"}, {"measurement": "GI50", "setting": "A498", "value": "> 100 µM (inactive)"}, {"measurement": "GI50", "setting": "OVCAR-3", "value": "33 µM (inactive)"}, {"measurement": "GI50", "setting": "K562", "value": "33.4 µM (inactive)"}, {"measurement": "GI50", "setting": "SNB-75", "value": "> 10 µM (inactive)"}, {"measurement": "GI50", "setting": "OVCAR-8", "value": "51.3 µM (inactive)"}, {"measurement": "GI50", "setting": "SF-268", "value": "49.4 µM (inactive)"}, {"measurement": "GI50", "setting": "SN12C", "value": "37.9 µM (inactive)"}, {"measurement": "GI50", "setting": "786-0", "value": "32.9 µM (inactive)"}, {"measurement": "GI50", "setting": "UO-31", "value": "> 100 µM (inactive)"}, {"measurement": "GI50", "setting": "SK-MEL-28", "value": "43.4 µM (inactive)"}, {"measurement": "GI50", "setting": "HOP-62", "value": "> 100 µM (inactive)"}, {"measurement": "GI50", "setting": "LXFL 529", "value": "36.1 µM (inactive)"}, {"measurement": "GI50", "setting": "TK-10", "value": "> 100 µM (inactive)"}, {"measurement": "GI50", "setting": "SNB-19", "value": "> 100 µM (inactive)"}, {"measurement": "GI50", "setting": "NCI-H460", "value": "40.8 µM (inactive)"}, {"measurement": "GI50", "setting": "HCT-15", "value": 66.7, "unit": "µM"}, {"measurement": "GI50", "setting": "COLO 205", "value": "32.7 µM (inactive)"}, {"measurement": "GI50", "setting": "EKVX", "value": "47.5 µM (inactive)"}, {"measurement": "GI50", "setting": "SF-295", "value": "41.5 µM (inactive)"}, {"measurement": "GI50", "setting": "HL-60", "value": "32.7 µM (inactive)"}, {"measurement": "GI50", "setting": "M19-MEL", "value": "49 µM (inactive)"}, {"measurement": "GI50", "setting": "UACC-257", "value": "47.8 µM (inactive)"}, {"measurement": "GI50", "setting": "IGROV-1", "value": "> 100 µM (inactive)"}, {"measurement": "GI50", "setting": "HT-29", "value": "44 µM (inactive)"}, {"measurement": "GI50", "setting": "KM-20L2", "value": "71.1 µM (inactive)"}, {"measurement": "GI50", "setting": "SK-OV-3", "value": "85.7 µM (inactive)"}, {"measurement": "GI50", "setting": "SR", "value": "31 µM (inactive)"}, {"measurement": "GI50", "setting": "SW-620", "value": "31.6 µM (inactive)"}]}]}
